Test results: patent publication US4016042A, “Substrate for the quantitative determination of enzymes” (Pentapharm A.G., priority 1974, dated 1977)
Structures can show the parent of a compound that is named as a salt. Non-standard residues stand in square brackets, D forms with d. Residues, ends and D or L forms follow the SMILES beside them. *: point of attachment. Cha = N[C@@H](CC1CCCCC1)C(=O)O; pNA = O=[N+]([O-])c1ccc(N*)cc1; Phg = N[C@H](C(=O)O)c1ccccc1; Tos = Cc1ccc(S(=O)(=O)*)cc1; 4Abz = Nc1ccc(C(=O)O)cc1; βNA = c1ccc2cc(N*)ccc2c1; Cbz = O=C(OCc1ccccc1)*; Bz = O=C(c1ccccc1)*; Ahx = NCCCCCC(=O)O

Tests used:
Type in all cases: biochemical
plasmin = plasmin (Homo sapiens, UniProt P00747); assay: Activity of human plasmin measured with the substrates at constant substrate and enzyme concentrations; conditions: split product
Sequence of plasmin (P00747 581-810 limits assumed): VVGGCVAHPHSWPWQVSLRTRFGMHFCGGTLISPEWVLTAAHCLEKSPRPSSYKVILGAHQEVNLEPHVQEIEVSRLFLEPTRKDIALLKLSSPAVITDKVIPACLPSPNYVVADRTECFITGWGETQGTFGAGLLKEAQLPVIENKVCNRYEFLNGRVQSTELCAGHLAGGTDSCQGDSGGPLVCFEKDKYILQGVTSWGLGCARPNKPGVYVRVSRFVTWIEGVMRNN
Sequence of plasmin (P00747 97-580 partner limits assumed): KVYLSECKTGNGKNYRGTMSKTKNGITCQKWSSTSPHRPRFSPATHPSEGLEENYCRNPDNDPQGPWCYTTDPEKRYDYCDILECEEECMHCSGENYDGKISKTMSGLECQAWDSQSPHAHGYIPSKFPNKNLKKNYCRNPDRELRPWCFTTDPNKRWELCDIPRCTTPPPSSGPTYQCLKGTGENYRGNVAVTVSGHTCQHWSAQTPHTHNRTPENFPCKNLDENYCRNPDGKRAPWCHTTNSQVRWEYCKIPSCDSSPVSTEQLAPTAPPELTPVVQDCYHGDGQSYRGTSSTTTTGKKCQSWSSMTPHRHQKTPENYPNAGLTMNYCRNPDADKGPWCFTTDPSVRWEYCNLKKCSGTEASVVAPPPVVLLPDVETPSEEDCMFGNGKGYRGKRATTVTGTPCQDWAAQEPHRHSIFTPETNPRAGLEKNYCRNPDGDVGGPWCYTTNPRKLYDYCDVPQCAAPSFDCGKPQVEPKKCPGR
Procedure: (§1) HCl, were used for the quantitative determination of various enzymes in blood plasma. The determination was carried out by taking advantage of the fact that the split product NH2 -R^2 formed by enzymatic hydrolysis of the substrate has a UV spectrum which differs from that of the substrate and is shifted toward higher wave lengths. Thus, N^α-Bz-Pro-Phe-Arg-pNA^.
(§2) The degree of the enzymatic hydrolysis of the substrate, which is proportional to the quantity of p-nitroaniline formed, can be easily determined by spectrophotometric measurement at 405 nm. […] The conditions are practically the same for the other substrates carrying a p-nitroanilino group as a chromogenic group. The spectrophotometric measurement was, therefore, carried out in all cases at 405 nm.

plasma kallikrein = plasma kallikrein (Homo sapiens, UniProt P03952); assay: Activity of plasma kallikrein measured with the substrates at constant substrate and enzyme concentrations; conditions: split product
Sequence of plasma kallikrein (P03952 391-638 limits assumed, species assumed): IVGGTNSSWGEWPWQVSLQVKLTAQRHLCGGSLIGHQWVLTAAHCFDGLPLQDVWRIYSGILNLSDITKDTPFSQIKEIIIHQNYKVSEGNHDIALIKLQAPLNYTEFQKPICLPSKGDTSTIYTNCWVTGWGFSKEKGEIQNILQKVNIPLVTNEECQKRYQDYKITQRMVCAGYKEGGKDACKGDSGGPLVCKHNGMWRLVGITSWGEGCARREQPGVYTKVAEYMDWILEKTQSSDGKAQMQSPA
Sequence of plasma kallikrein (P03952 20-390 partner limits assumed, species assumed): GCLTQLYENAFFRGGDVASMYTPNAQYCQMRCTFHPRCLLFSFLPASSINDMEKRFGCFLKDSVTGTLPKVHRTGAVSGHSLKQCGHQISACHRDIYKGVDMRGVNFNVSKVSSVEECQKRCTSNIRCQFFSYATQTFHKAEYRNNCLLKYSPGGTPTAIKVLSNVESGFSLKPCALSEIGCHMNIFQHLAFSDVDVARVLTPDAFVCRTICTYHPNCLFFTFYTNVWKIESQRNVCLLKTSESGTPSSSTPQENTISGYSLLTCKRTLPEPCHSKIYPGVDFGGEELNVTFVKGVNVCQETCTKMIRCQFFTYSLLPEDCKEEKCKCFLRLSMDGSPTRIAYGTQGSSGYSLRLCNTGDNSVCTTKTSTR
Procedure: as §1, §2

trypsin = target: T1, trypsin (Bos taurus, UniProt P00760); assay: Splitting by trypsin with liberation of pNA
T1 sequence (P00760 24-246): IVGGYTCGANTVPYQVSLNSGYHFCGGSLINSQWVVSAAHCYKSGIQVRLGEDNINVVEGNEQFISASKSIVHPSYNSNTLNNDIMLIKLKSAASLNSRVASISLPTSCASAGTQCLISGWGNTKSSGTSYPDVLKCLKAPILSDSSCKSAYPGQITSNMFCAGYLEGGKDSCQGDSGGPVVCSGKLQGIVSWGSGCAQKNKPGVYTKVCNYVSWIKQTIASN
Procedure: In a 250 ml three-necked flask 16.0 g (47 mmoles) of Cbo-Arg-OH.HCl, dried over P2 O5 in vacuo, were dissolved in 90 ml of absolute HMPTA in a moisture-free atmosphere at 20° C. To the resulting solution there was first added portionwise a solution of 4.74 g (47 mmoles) of Et3 N in 10 ml of HMPTA and then 16.4 g (100 mmoles) of p-nitrophenylisocyanate (100% excess) at room temperature. The reaction mixture was kept at room temperature for 24 hours, whereupon most of the HMPTA was distilled off in vacuo. The residue was extracted several times with 30% AcOH. The residue was discarded. The combined AcOH extracts were further purified by gel filtration on a "Sephadex G-15" column as described in Example 1, paragraph I (e). […] Elementary analysis and calculation from the empirical formula C20 H25 N6 O5 Cl gave the following values: C = 51.29% (51.67%); H = 5.48% (5.42%); N = 17.92% (18.08%); Cl = 7.50% (7.63%).

Row | Compound | Quantity of p-nitroaniline (pNA), β-naphthylamine (2-NA) or 4-methoxy-β-naphthylamine (4-MeO-2-NA) released within 1 minute by one C unit of human plasmin (plasmin) | Quantity of p-nitroaniline (pNA), β-naphthylamine (2-NA) or 4-methoxy-β-naphthylamine (4-MeO-2-NA) released within 1 minute by 1 BAEE unit of plasma kallikrein (plasma kallikrein) | splitting by trypsin (trypsin)
1 | N=C(N)NCCC[C@H](NC(=O)[C@H](Cc1ccccc1)NC(=O)[C@@H]1CCCN1)C(=O)Nc1ccc([N+](=O)[O-])cc1 [Substrate II, H-Pro-Phe-Arg-pNA.2HCl] (H-Pro-Phe-Arg-pNA) | 16.2 nm | 28.6 nm | –
2 | CC(=O)N1CCC[C@H]1C(=O)N[C@@H](Cc1ccccc1)C(=O)N[C@@H](CCCNC(=N)N)C(=O)Nc1ccc([N+](=O)[O-])cc1 [Substrate III, N^α -Ac-Pro-Phe-Arg-pNA.HCl] (Ac-Pro-Phe-Arg-pNA) | 49.1 nm | 42.3 nm | –
3 | N=C(N)NCCC[C@H](NC(=O)[C@H](Cc1ccccc1)NC(=O)[C@@H]1CCCN1C(=O)C1CCCCC1)C(=O)Nc1ccc([N+](=O)[O-])cc1 [Substrate V, N^α -cyclohexylcarbonyl-Pro-Phe-Arg-pNA.HCl] | 158.0 nm | 154.7 nm | –
4 | Cc1ccc(C(=O)N2CCC[C@H]2C(=O)N[C@@H](Cc2ccccc2)C(=O)N[C@@H](CCCNC(=N)N)C(=O)Nc2ccc([N+](=O)[O-])cc2)cc1 [Substrate VI, N^α -4-Methyl-Bz-Pro-Phe-Arg-pNA.HCl] | 142.0 nm | 78.4 nm | –
5 | N=C(N)NCCC[C@H](NC(=O)[C@H](Cc1ccccc1)NC(=O)[C@@H]1CCCN1C(=O)CCCCCN)C(=O)Nc1ccc([N+](=O)[O-])cc1 [Substrate VIII, N^α -(ω-Aminocaproyl)-Pro-Phe-Arg-pNA.2HCl] (H-[Ahx]PFR-pNA) | 256.0 nm | 59.7 nm | –
6 | Cc1ccc(S(=O)(=O)N2CCC[C@H]2C(=O)N[C@@H](Cc2ccccc2)C(=O)N[C@@H](CCCNC(=N)N)C(=O)Nc2ccc([N+](=O)[O-])cc2)cc1 [Substrate X, N^α-Tos-Pro-Phe-Arg-pNA.HCl] (Tos-Pro-Phe-Arg-pNA) | 80.2 nm | 88.5 nm | –
7 | N=C(N)NCCC[C@H](NC(=O)[C@H](Cc1ccccc1)NC(=O)[C@@H]1CCCN1C(=O)Cc1ccc(N)cc1)C(=O)Nc1ccc([N+](=O)[O-])cc1 [Substrate XI, N^α-4-Aminophenyl-acetyl-Pro-Phe-Arg-pNA. 2HCl] | 230.0 nm | 72.1 nm | –
8 | N=C(N)NCCC[C@H](NC(=O)[C@H](Cc1ccccc1)NC(=O)[C@@H]1CCCN1C(=O)c1ccc(N)cc1)C(=O)Nc1ccc([N+](=O)[O-])cc1 [Substrate XII, N^α-4-Aminobenzoyl-Pro-Phe-Arg-pNA. 2HCl] (H-[4Abz]PFR-pNA) | 196.0 nm | 49.2 nm | –
9 | N=C(N)NCCC[C@H](NC(=O)[C@H](Cc1ccccc1)NC(=O)[C@@H]1CCCN1C(=O)OCc1ccccc1)C(=O)Nc1ccc([N+](=O)[O-])cc1 [Substrate XIII, N^α-Cbo-Pro-Phe-Arg-pNA.HCl] (Cbz-Pro-Phe-Arg-pNA) | 176.1 nm | 109.9 nm | –
10 | N=C(N)NCCC[C@H](NC(=O)[C@H](CC1CCCCC1)NC(=O)[C@@H]1CCCN1C(=O)c1ccccc1)C(=O)Nc1ccc([N+](=O)[O-])cc1 [Substrate XIV, N^α-Bz-Pro-CHA-Arg-pNA.HCl] (Bz-Pro-[Cha]-Arg-pNA) | 116.0 nm | 64.5 nm | –
11 | N=C(N)NCCC[C@H](NC(=O)[C@H](Cc1ccc(O)cc1)NC(=O)[C@@H]1CCCN1C(=O)c1ccccc1)C(=O)Nc1ccc([N+](=O)[O-])cc1 [Substrate XV, N^α-Bz-Pro-Tyr-Arg-pNA.HCl] (Bz-Pro-Tyr-Arg-pNA) | 73.8 nm | 71.0 nm | –
12 | N=C(N)NCCC[C@H](NC(=O)[C@@H](NC(=O)[C@@H]1CCCN1C(=O)c1ccccc1)c1ccccc1)C(=O)Nc1ccc([N+](=O)[O-])cc1 [Substrate XVI, N^α-Bz-Pro-Ph.Gly-Arg-pNA.HCl] (Bz-Pro-[Phg]-Arg-pNA) | 16.2 nm | 9.1 nm | –
13 | N=C(N)NCCC[C@H](NC(=O)[C@H](Cc1ccccc1)NC(=O)[C@@H]1CCCN1C(=O)c1ccccc1)C(=O)Nc1ccc2ccccc2c1 [Substrate XVII, N^α-Bz-Pro-Phe-Arg-2-NA^. HCl] (Bz-Pro-Phe-Arg-βNA) | 95.4 nm | 44.1 nm | –
14 | COc1cc(NC(=O)[C@H](CCCNC(=N)N)NC(=O)[C@H](Cc2ccccc2)NC(=O)[C@@H]2CCCN2C(=O)c2ccccc2)cc2ccccc12 [Substrate XVIII, N^α-Bz-Pro-Phe-Arg-4-MeO-2-NA^. HCl] | 79.7 nm | 39.8 nm | –
15 | N=C(N)NCCC[C@H](NC(=O)OCc1ccccc1)C(=O)Nc1ccc([N+](=O)[O-])cc1 [XIIIa, Cbo-Arg-pNA.HCl] | – | – | split by trypsin with liberation of pNA
16 | N^α -4-Aminomethyl-cyclohexylcarbonyl-Pro-Phe-Arg-pNA.2HCl [Substrate IX] | 600.0 nm | 65.1 nm | –
17 | N^α -Caproyl-Pro-Phe-Arg-pNA.HCl [Substrate IV] | 100.0 nm | 108.3 nm | –
